{"source": "paper PMC10403574", "about": "“Discovery of a pyrrole-pyridinimidazole derivative as novel SIRT6 inhibitor for sensitizing pancreatic cancer to gemcitabine” (Cell Death & Disease, 2023)", "key": {"β-TC-6 cells": {"test_system": "β-TC-6 cells", "assay": "Cell glucose uptake assay, β-TC-6", "type": "cell-based", "conditions": "β-TC-6, 8a (3.125, 6.25, 12.5 μM) + insulin (100 nM) vs insulin only, 30 min", "procedure": "The NIT-1 and β-TC-6 cells were added to the wells of 12-well plates and incubated overnight. Then the culture medium without FBS was incubated for 6 h, and different concentrations of 8a (3.125, 6.25, 12.5 μM), insulin (100 nM) or their combination were added for 30 min. Glucose uptake was determined using a Glucose Uptake Assay Kit (Jiancheng, Nanjing)."}, "HDAC6": {"biological_target": "HDAC6 (Homo sapiens, UniProt Q9UBN7)", "sequence (Q9UBN7 whole entry, species assumed)": "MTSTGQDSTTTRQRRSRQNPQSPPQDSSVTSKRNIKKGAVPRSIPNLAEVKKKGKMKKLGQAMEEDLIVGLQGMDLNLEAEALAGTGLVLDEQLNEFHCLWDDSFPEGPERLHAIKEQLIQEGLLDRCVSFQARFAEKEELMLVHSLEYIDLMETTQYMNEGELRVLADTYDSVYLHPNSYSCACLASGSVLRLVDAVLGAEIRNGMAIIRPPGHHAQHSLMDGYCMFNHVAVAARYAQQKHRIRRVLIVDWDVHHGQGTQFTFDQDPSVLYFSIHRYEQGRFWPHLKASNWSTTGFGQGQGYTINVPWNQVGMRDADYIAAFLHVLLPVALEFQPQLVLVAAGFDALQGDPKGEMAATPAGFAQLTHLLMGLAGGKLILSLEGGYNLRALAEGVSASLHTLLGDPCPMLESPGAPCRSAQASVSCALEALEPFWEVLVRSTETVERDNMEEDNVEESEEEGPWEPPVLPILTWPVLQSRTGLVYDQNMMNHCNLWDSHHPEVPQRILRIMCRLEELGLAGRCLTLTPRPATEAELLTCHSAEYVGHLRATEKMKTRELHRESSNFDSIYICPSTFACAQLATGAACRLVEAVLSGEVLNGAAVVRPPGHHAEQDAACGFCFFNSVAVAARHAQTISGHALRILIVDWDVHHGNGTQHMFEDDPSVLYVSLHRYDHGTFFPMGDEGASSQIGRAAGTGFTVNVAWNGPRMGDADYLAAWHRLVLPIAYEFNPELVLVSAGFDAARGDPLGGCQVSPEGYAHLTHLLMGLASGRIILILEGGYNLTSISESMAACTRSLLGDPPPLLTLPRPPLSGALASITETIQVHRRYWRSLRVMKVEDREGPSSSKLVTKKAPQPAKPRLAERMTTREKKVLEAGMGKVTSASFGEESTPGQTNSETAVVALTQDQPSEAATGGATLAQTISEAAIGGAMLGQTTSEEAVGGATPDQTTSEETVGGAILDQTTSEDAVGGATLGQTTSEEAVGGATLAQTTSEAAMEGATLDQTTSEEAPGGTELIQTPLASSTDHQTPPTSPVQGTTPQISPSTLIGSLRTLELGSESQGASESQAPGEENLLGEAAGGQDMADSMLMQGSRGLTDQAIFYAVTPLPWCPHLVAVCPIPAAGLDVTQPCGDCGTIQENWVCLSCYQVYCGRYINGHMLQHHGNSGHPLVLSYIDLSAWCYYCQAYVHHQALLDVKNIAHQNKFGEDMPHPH", "assay": "Deacetylation activity selectivity, HDAC6", "type": "biochemical", "text": "(§1) Based on the above results, 8a was further investigated in this study. […] To further evaluate the selectivity of 8a for SIRT6, we examined the effect of 8a on the deacetylation activity of other HDAC family members, including HDAC1-HDAC11, SIRT1-SIRT3 and SIRT5. […] Furthermore, to confirm binding of 8a to SIRT6 in cells, we carried out the cellular thermal shift assay (CETSA). The CETSA approach builds on the thermal shift assay concept where ligand binding to its target protein enhances the target protein stability. We observed that the thermal stability of SIRT6 increased after 8a treatment (Figs. 2c, d)."}, "[1]": {"biological_target": "T1, SIRT6 mutant (V70A and F86A) (Homo sapiens, UniProt Q8N6T7, F86A/V70A)", "T1 construct": "The human full-length SIRT6 gene was inserted into the prokaryotic expression vector (pET-28a (+)); inferred from the pET-28a(+) vector and Ni-NTA purification of the wild-type construct); made in house; host or cells: Escherichia coli BL21 (DE3) (inferred from the wild-type protocol)", "T1 sequence (Q8N6T7 whole entry V70A/F86A)": "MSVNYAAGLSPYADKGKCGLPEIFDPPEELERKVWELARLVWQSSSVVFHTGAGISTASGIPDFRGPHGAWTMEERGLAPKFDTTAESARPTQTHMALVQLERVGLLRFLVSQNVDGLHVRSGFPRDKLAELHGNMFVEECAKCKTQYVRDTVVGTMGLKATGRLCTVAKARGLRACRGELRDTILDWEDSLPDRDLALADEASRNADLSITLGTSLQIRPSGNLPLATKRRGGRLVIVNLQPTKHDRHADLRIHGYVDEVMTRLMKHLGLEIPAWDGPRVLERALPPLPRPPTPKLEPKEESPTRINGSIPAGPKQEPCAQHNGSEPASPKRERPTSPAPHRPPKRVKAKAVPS", "assay": "FDL assay on SIRT6 mutant (V70A and F86A)", "type": "biochemical", "procedure": "(§2) Fluor-De-Lys (FDL) assays were used for the examination of the deacetylation activities of sirtuins as described previously. For the detection of SIRT6 activity, the 50-μL reaction mixture contained 5 μM SIRT6, 2.5 mM NAD^+ (β-Nicotinamide adenine dinucleotide hydrate, Sigma, N1636), 75 μM RHKK-Ac-AMC (GL Biochem, Shanghai), compounds/DMSO, and assay buffer. The reactions were incubated at 37 °C for 2 h, added 50 μL stop solution (40 mM nicotinamide, 6 mg/mL trypsin) at 25 °C for 30 min. Fluorescence intensity was measured at an excitation wavelength of 360 nm and an emission wavelength of 460 nm. IC50 values were calculated in GraphPad Prism version 8.00.\n(§3) To explore the interaction mechanism, we performed the molecular docking experiment between SIRT6 (PDB ID: 6QCJ) and 8a. […] 8a mainly formed hydrogen bond with the backbone amino group of D187 and the ribose hydroxyl group of the coenzyme NAD^+, and stabilized the whole system by hydrophobic interactions with key amino acids such as I8, V70, W71, F82 and F86 (Fig. 2g). To verify this binding model, the mutant (V70A and F86A) of SIRT6 was constructed by site mutation. […] Moreover, there were also some other potential binding pockets predicted by molecular docking (data not shown). Based on the prediction, we constructed other two SIRT6 mutants (E140A/R195A and T184A/S191A/P193A/E283A). […]"}, "SIRT1": {"biological_target": "SIRT1 (Homo sapiens, UniProt Q96EB6)", "sequence (Q96EB6 whole entry, species assumed)": "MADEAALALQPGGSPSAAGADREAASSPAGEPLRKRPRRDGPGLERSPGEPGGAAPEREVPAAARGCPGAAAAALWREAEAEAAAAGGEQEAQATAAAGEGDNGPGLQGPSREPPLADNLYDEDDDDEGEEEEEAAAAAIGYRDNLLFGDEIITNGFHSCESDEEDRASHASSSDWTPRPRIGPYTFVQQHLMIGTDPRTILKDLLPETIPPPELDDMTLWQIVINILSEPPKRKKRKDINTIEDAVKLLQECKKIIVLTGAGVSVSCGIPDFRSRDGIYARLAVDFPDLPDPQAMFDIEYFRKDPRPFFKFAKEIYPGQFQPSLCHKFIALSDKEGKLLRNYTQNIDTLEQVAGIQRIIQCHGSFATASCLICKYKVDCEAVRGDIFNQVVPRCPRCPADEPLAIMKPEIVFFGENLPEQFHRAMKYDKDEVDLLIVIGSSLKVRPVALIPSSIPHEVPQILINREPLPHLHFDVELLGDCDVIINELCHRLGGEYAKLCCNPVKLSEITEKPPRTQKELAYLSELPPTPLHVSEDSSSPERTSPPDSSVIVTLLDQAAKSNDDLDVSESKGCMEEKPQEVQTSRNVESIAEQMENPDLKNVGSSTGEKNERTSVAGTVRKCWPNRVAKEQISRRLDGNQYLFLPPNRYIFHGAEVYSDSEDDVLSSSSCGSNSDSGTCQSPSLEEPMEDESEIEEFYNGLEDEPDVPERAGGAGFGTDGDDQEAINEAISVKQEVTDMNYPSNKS", "assay": "Deacetylation activity selectivity, SIRT1", "type": "biochemical", "procedure": "as §2, §1"}, "SIRT5": {"biological_target": "SIRT5 (Homo sapiens, UniProt Q9NXA8)", "sequence (Q9NXA8 37-310, species assumed)": "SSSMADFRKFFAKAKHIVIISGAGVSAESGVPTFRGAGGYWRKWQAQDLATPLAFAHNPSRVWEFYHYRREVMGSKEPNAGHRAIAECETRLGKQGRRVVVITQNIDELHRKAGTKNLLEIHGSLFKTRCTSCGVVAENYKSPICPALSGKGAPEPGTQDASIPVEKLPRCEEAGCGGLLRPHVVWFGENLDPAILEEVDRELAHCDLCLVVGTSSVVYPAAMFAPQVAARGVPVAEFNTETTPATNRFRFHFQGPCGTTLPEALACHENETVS", "assay": "Deacetylation activity selectivity, SIRT5", "type": "biochemical", "procedure": "as §2, §1"}, "[2]": {"test_system": "SIRT6 mutants (E140A/R195A, T184A/S191A/P193A/E283A, E22A and D63A)", "assay": "FDL assay on other SIRT6 mutants", "type": "biochemical, human", "conditions": "three mutants", "procedure": "as §2, §3"}, "HDAC8": {"biological_target": "HDAC8 (Homo sapiens, UniProt Q9BY41)", "sequence (Q9BY41 whole entry, species assumed)": "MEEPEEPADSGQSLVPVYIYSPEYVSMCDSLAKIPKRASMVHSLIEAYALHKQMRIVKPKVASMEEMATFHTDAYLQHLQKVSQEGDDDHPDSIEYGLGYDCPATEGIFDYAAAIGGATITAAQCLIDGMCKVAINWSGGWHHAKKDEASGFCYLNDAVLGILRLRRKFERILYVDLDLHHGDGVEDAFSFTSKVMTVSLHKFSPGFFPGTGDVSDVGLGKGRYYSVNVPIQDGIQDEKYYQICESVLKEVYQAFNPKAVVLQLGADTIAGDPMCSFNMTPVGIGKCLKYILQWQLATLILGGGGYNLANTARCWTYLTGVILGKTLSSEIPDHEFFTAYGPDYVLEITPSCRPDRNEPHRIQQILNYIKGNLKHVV", "assay": "Deacetylation activity selectivity, HDAC8", "type": "biochemical", "text": "as §1"}, "BXPC-3 cells": {"test_system": "BXPC-3 cells", "assay": "Colony formation assay", "type": "cell-based", "conditions": "dose-dependent", "procedure": "The BXPC-3 cells were plated in six-well plates at 1000 cells per well. After 12 h, different concentrations of 8a, Gemcitabine or their combination were added for 7–10 days. The cells were fixed for 15 min with paraformaldehyde (4%) and then stained with crystal violet (0.1%) for 15 min at room temperature. Surviving colonies consisting of 50 or more cells were counted under microscope."}, "HDAC2": {"biological_target": "HDAC2 (Homo sapiens, UniProt Q92769)", "sequence (Q92769 whole entry, species assumed)": "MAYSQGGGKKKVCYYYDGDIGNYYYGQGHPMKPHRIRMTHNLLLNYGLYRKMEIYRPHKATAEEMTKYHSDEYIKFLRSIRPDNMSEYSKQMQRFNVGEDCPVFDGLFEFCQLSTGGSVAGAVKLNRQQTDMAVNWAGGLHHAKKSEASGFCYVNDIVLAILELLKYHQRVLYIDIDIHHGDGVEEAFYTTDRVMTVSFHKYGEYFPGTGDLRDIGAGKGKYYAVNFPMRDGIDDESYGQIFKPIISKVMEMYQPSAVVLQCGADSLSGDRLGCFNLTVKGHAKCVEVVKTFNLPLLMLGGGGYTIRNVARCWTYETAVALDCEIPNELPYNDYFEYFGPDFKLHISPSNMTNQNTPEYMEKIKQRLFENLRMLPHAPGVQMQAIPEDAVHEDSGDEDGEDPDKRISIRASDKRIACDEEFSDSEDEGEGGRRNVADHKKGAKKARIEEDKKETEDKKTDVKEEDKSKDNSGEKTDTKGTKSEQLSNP", "assay": "Deacetylation activity selectivity, HDAC2", "type": "biochemical", "text": "as §1"}}}
{"smiles": "Br.CN(C)C(SCCCCCCn1cnc2c(-c3cc(Br)c(Br)[nH]3)nccc21)=[N+](C)C.[Cl-]", "note": "[Compound 8a]", "values": [{"measurement": "glucose uptake", "setting": "β-TC-6 cells", "value": "no significant effect"}, {"measurement": "IC50", "setting": "HDAC6", "value": "96.8 ± 1.98", "unit": "µM"}, {"measurement": "IC50", "setting": "[1]; FDL assay", "value": "79 ± 9", "unit": "µM"}, {"measurement": "increase of IC50 to the mutant (V70A and F86A)", "setting": "[1]; versus wild-type SIRT6", "value": "approximately 10 fold"}, {"measurement": "IC50", "setting": "SIRT1", "value": "80.5 ± 1.91", "unit": "µM"}, {"measurement": "IC50", "setting": "SIRT5", "value": "> 200", "unit": "µM"}, {"measurement": "effect of mutants on the inhibitory activity of 8a", "setting": "[2]", "value": "did not significantly affect"}, {"measurement": "IC50", "setting": "HDAC8", "value": "102 ± 2.01", "unit": "µM"}, {"measurement": "colony formation", "setting": "BXPC-3 cells", "value": "much smaller and fewer colonies"}, {"measurement": "IC50", "setting": "HDAC2", "value": "> 200", "unit": "µM"}]}
